Measured values as given in PubChem BioAssay (NCI).
Several values for one entry are separate records, joined by “and”; a condition that tells them apart may be missing. Equal values may be shown once.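 In this assay, cells in 96-well plates receive the compound at five concentrations for 48 hours. Endpoints are linearly interpolated between the surrounding concentrations. GI50: concentration for 50% inhibition of growth. Definition used: TGI = concentration required for complete inhibition of growth.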

How the values were obtained:
Assay in all cases: NCI-60 cell line screen, 48 h
[1] = tested on: HCT-116 colon
[2] = tested on: HCT-15 colon
[3] = tested on: HL-60(TB) leukemia
[4] = tested on: MALME-3M melanoma
[5] = tested on: NCI-H226 lung
[6] = tested on: NCI-H522 lung
[7] = tested on: OVCAR-4 ovarian
[8] = tested on: OVCAR-8 ovarian
[9] = tested on: SK-MEL-5 melanoma
[10] = tested on: SN12C renal
[11] = tested on: SW-620 colon
[12] = tested on: T-47D breast

SMILES | TGI [1] [µM] | TGI [2] [µM] | TGI [3] [µM] | TGI [4] [µM] | TGI [5] | TGI [6] [µM] | TGI [7] [µM] | TGI [8] [µM] | TGI [9] [µM] | TGI [10] [µM] | TGI [11] [µM] | TGI [12] [µM] | GI50 [2] [µM] | GI50 [7] [µM]
Cn1c(CNc2ccc(-c3n[nH]c(=S)n3C)cc2)n[nH]c1=S | > 100 | > 100 | > 100 | > 100 | > 100 µM | > 100 | > 100 | > 100 | > 100 | > 100 | > 100 | – | – | –
CC(C)(CN1CCCCC1)C(=O)/C=C/c1ccc(Br)cc1 | 8.08 | > 24.7 | 5.83 | 17.4 | 15.7 µM | 3.98 | 19.3 | 6.98 | 12.6 | 7.66 | 6.83 | – | – | –
COc1ccc(-c2oc3cc(-c4cc5oc(-c6ccc(OC)cc6)c(-c6ccc(OC)cc6)c5cc4OC)c(OC)cc3c2-c2ccc(OC)cc2)cc1 | > 100 | > 100 | – | > 100 | > 100 µM | > 100 | > 100 | > 100 | > 100 | > 100 | > 100 | – | – | –
CCN1/C(=C/C#C/C(C)=C\c2sc3ccc(Cl)cc3[n+]2CC)Sc2ccc(Cl)cc21 | 12.3 | > 100 | – | 6.84 | 21.9 µM | 6.02 | > 100 | 17 | 5.26 | 16.1 | – | 17.6 | – | –
COC(=O)[C@@]12OC[C@]34C([C@@H](O)C1O)[C@@]1(C)CC(=O)C(OC(=O)CC(C)C(F)(F)F)=C(C)C1C[C@H]3OC(=O)[C@H](O)[C@H]42 (stereo not given in full) | > 62.5 | > 62.5 | 1.98 | 3.69 | 14.5 µM | 24.5 | > 62.5 | > 62.5 | 22.2 | 21.2 | > 62.5 | – | – | –
O=C(NCCC1CNc2ccccc21)OCc1ccccc1 (stereo not given) | > 100 | > 100 | – | > 100 | – | > 100 | > 100 | > 100 | > 100 | – | > 100 | – | – | –
CN1CCOC(C(NC(=O)c2ccccc2)c2ccccc2)C1=O (stereo not given) | > 100 | > 100 | > 100 | > 100 | > 100 µM | > 100 | > 100 | > 100 | > 100 | > 100 | > 100 | – | – | –
COC(=O)C(C(=O)C(=O)Nc1c(Cl)cc([N+](=O)[O-])cc1Cl)c1csc(-n2nc(C3=CCCCC3)cc2-c2ccccc2)n1 (stereo not given) | > 100 | > 100 | > 100 | > 100 | > 100 µM | > 100 | > 100 | > 100 | – | > 100 | > 100 | – | – | –
CSC(=O)/C=C1\SS/C(=C\C(=O)SC)S1 | 3.29 | 6.07 | – | 4.6 | 3.41 µM | 6.34 | > 41.2 | 11.7 | 6.79 | 3.79 | 4.15 | 20.6 | – | –
CCOC(=O)C1S(=O)(=O)OCCOS1(=O)=O | > 100 | – | > 100 | > 100 | – | > 100 | > 100 | > 100 | > 100 | > 100 | > 100 | – | – | –
O=C1CC(c2cccc(Cl)c2)Nc2ccc(N3CCCC3)cc21 (stereo not given) | – | > 100 | – | – | 0.606 µM and 0.338 µM | 0.0677 | > 100 | 3.85 | 0.087 | 0.0151 | > 100 | > 100 | 0.0329 | 18.6
O=C1c2ccccc2N2OC3(N4CCOCC4)CCCC3C12c1ccccc1 (stereo not given) | > 100 | > 100 | > 100 | > 100 | > 100 µM | > 100 | > 100 | > 100 | > 100 | > 100 | > 100 | – | – | –
CN=c1sc2c(n1C)C(=O)c1ccccc1C2=O | 9.1 | 4.82 | – | 1.14 | 5.65 µM | 29.4 | 11 | 15.3 | 6.85 | 3.05 | 4.81 | 17.5 | – | –
CCOC(=O)c1cn(CC)c(=O)n2c1nc1ccccc12 | > 100 | > 100 | – | – | > 100 µM | – | > 100 | > 100 | > 100 | > 100 | > 100 | > 100 | – | –
COC(=O)/C=C/c1ccc(OP(=O)(O)O)c(OC)c1 | > 100 | > 100 | – | > 100 | > 100 µM | > 100 | > 100 | > 100 | > 100 | > 100 | > 100 | > 100 | – | –
COC(=O)c1cc(S(=O)(=O)NC2=NCC(C)NN2)c(S)cc1Cl (stereo not given) | > 100 | > 100 | > 100 | 97.5 | – | 47.5 | > 100 | > 100 | 82.3 | > 100 | > 100 | – | – | –
